Data from the supplement of paper PMC11616607.

Key:
Assay in all cases: drug sensitivity score (DSS) from 5-point dose-response viability curve (DSS (area-under-curve based score)); higher = more sensitive (stronger growth inhibition or killing); extreme values may be limits of the assay
Conditions in all cases: exposure time: 72 h; concentration range: 5 concentrations over 10,000-fold range
[1] = system: OVCAR4
Method in brief: (§1)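 Ovarian cancer and normal ovarian cell lines were tested in 384-well plates, with drugs dispensed acoustically (Echo 550) in DMSO or water at five concentrations covering a 10,000-fold range. After 1,500 cells per well were added, plates were incubated for 3 days at 37°C and 5% CO2, and viability was read by CellTiter-Glo luminescence on a PHERAstar FS. Breeze software gave a drug sensitivity score for each cell line and drug, where a higher score means greater sensitivity. A value of zero means no response.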

[2] = system: OVCAR8
Method in brief: as §1

[3] = system: OV90
Method in brief: as §1

[4] = system: COV362
Method in brief: as §1

[5] = system: HOSE2C
Method in brief: as §1

[6] = system: OVCAR5
Method in brief: as §1

[7] = system: Kuramochi
Method in brief: as §1

[8] = system: JHOS2
Method in brief: as §1

[9] = system: HOSE1C
Method in brief: as §1

[10] = system: Ovsaho
Method in brief: as §1

[11] = system: COV318
Method in brief: as §1

[12] = system: CAOV3
Method in brief: as §1

| Compound | drug sensitivity score [1] | drug sensitivity score [2] | drug sensitivity score [3] | drug sensitivity score [4] | drug sensitivity score [5] | drug sensitivity score [6] | drug sensitivity score [7] | drug sensitivity score [8] | drug sensitivity score [9] | drug sensitivity score [10] | drug sensitivity score [11] | drug sensitivity score [12] |
| --- | --- | --- | --- | --- | --- | --- | --- | --- | --- | --- | --- | --- |
| COc1c(OCCCN2CCOCC2)ccc2c1N=C(NC(=O)c1cnc(N)nc1)N1CCN=C21 [Copanlisib] | 5.3 | 5.7 | 3.5 | 2.5 | 6.6 | 10.4 | 8 | 2.6 | 4.8 | 6.3 | 3.8 | 9.9 |
| CC1(COc2ccc3c(c2)ncn3-c2ccc3cccc(N4CCC(N)CC4)c3n2)COC1 [Crenolanib] | 2.9 | 6.9 | 6 | 6.8 | 2.8 | 4.9 | 4 | 7.9 | 4.8 | 4.4 | 5.4 | 10 |
| C[C@@H](Oc1cc(-c2cnn(C3CCNCC3)c2)cnc1N)c1c(Cl)ccc(F)c1Cl [Crizotinib] | 0 | 0 | 0 | 0 | 0.1 | 0 | 0 | 0 | 0 | 0 | 0 | 0 |
| CC(C)(C)c1nc(-c2cccc(NS(=O)(=O)c3c(F)cccc3F)c2F)c(-c2ccnc(N)n2)s1 [Dabrafenib] | 0 | 0 | 17.9 | 0 | 0 | 0 | 0 | 1.5 | 0 | 0 | 0 | 0 |
| COc1cc2ncnc(Nc3ccc(F)c(Cl)c3)c2cc1NC(=O)/C=C/CN1CCCCC1 [Dacomitinib] | 1.3 | 2.1 | 0.1 | 0.2 | 0 | 5 | 2.4 | 0.8 | 1.1 | 2.6 | 0.2 | 8 |
| Cc1c2oc3c(C)ccc(C(=O)N[C@@H]4C(=O)N[C@H](C(C)C)C(=O)N5CCC[C@H]5C(=O)N(C)CC(=O)N(C)[C@@H](C(C)C)C(=O)O[C@@H]4C)c3nc-2c(C(=O)N[C@@H]2C(=O)N[C@H](C(C)C)C(=O)N3CCC[C@H]3C(=O)N(C)CC(=O)N(C)[C@@H](C(C)C)C(=O)O[C@@H]2C)c(N)c1=O [Dactinomycin] | 17.5 | 24.3 | 23.1 | 13.9 | 30.5 | 20.9 | 27.9 | 26.5 | 34.6 | 26.5 | 9 | 23.4 |
| Cn1c(=O)n(-c2ccc(C(C)(C)C#N)cc2)c2c3cc(-c4cnc5ccccc5c4)ccc3ncc21 [Dactolisib] | 15.3 | 14.4 | 16.7 | 3.7 | 13.9 | 15 | 14.4 | 13.7 | 20.5 | 15.8 | 13.4 | 11 |
| CO[C@@H](C(=O)N1Cc2[nH]nc(NC(=O)c3ccc(N4CCN(C)CC4)cc3)c2C1)c1ccccc1 [Danusertib] | 8.7 | 8.7 | 4.9 | 5.6 | 12.5 | 7.2 | 11.1 | 3.1 | 7.4 | 14.7 | 4.3 | 23.5 |
| CCN(CC)CCN(Cc1ccc(-c2ccc(C(F)(F)F)cc2)cc1)C(=O)Cn1c(SCc2ccc(F)cc2)nc(=O)c2c1CCC2 [Darapladib] | 0 | 0 | 0.6 | 2.4 | 0 | 0.9 | 1 | 0.3 | 0 | 2 | 0.2 | 0 |
| Cc1nc(Nc2ncc(C(=O)Nc3c(C)cccc3Cl)s2)cc(N2CCN(CCO)CC2)n1 [Dasatinib] | 4.6 | 9.1 | 5.5 | 8.2 | 6 | 8 | 18.5 | 3.5 | 4.6 | 12.1 | 0.2 | 9.9 |
| COc1cccc2c1C(=O)c1c(O)c3c(c(O)c1C2=O)C[C@@](O)(C(C)=O)C[C@@H]3O[C@H]1C[C@H](N)[C@H](O)[C@H](C)O1 [Daunorubicin] | 3.2 | 10.8 | 5.3 | 3.6 | 10.9 | 8.2 | 4.2 | 6.2 | 11.5 | 7.9 | 1.7 | 9.4 |
| CC[C@@](C)(Nc1ccnc(-c2c[nH]c3ncccc23)n1)C(=O)NCC(F)(F)F [Decernotinib] | 0 | 0 | 0 | 0 | 0.6 | 0 | 0 | 0 | 0 | 0 | 0 | 0 |
| Nc1ncn([C@H]2C[C@H](O)[C@@H](CO)O2)c(=O)n1 [Decitabine] | 2.8 | 2.8 | 0 | 0 | 0.5 | 2.4 | 0 | 0 | 0 | 0 | 0 | 2.3 |
| CC(=O)N(O)CCCCCNC(=O)CCC(=O)N(O)CCCCCNC(=O)CCC(=O)N(O)CCCCCN [Deferoxamine] | 3.4 | 2.7 | 4.5 | 0.5 | 0 | 2.6 | 3.7 | 0.7 | 1.8 | 3.8 | 2.2 | 2.8 |
| C[C@@H]1C[C@H]2[C@@H]3CCC4=CC(=O)C=C[C@]4(C)[C@@]3(F)[C@@H](O)C[C@]2(C)[C@@]1(O)C(=O)CO [Dexamethasone] | 0 | 0 | 0 | 0.5 | 0 | 0 | 0 | 0 | 0 | 0 | 0 | 0 |
| C[C@H]1O[C@@H](O[C@H]2[C@@H](O)C[C@H](O[C@H]3[C@@H](O)C[C@H](O[C@H]4CC[C@@]5(C)[C@H](CC[C@@H]6[C@@H]5C[C@@H](O)[C@]5(C)[C@@H](C7=CC(=O)OC7)CC[C@]65O)C4)O[C@@H]3C)O[C@@H]2C)C[C@H](O)[C@@H]1O [Digoxin] | 9.6 | 11.2 | 7.2 | 10.8 | 9.5 | 7.5 | 8.5 | 10.9 | 11.1 | 7.1 | 11.9 | 6.2 |
| CCc1cnn2c(NCc3ccc[n+]([O-])c3)cc(N3CCCC[C@H]3CCO)nc12 [Dinaciclib] | 15.7 | 20.7 | 21.2 | 13.6 | 15.4 | 17.9 | 13.1 | 19 | 28 | 17.9 | 15.9 | 17.9 |
| CC(=O)O[C@@]12CO[C@@H]1C[C@H](O)[C@@]1(C)C(=O)[C@H](O)C3=C(C)[C@@H](OC(=O)[C@H](O)[C@@H](NC(=O)OC(C)(C)C)c4ccccc4)C[C@@](O)([C@@H](OC(=O)c4ccccc4)[C@H]21)C3(C)C [Docetaxel] | 8.1 | 27.7 | 15.5 | 9.3 | 27.6 | 23.4 | 16 | 13.9 | 29.3 | 10.3 | 9.5 | 28.7 |
| Cc1ccc(-n2nc(C(C)(C)C)cc2NC(=O)Nc2ccc(OCCN3CCOCC3)c3ccccc23)cc1 [Doramapimod] | 2.4 | 1.8 | 1.5 | 0 | 2.9 | 1.1 | 0.6 | 0 | 5 | 2.9 | 0 | 0 |
| CN1CCN(c2ccc3nc(-c4c(N)c5c(F)cccc5[nH]c4=O)[nH]c3c2)CC1 [Dovitinib] | 0.6 | 0 | 0 | 0 | 0 | 0 | 0 | 0 | 0 | 0 | 0 | 0 |
| COc1cccc2c1C(=O)c1c(O)c3c(c(O)c1C2=O)C[C@@](O)(C(=O)CO)C[C@@H]3O[C@H]1C[C@H](N)[C@H](O)[C@H](C)O1 [Doxorubicin] | 3.5 | 8.8 | 6.7 | 2.3 | 0 | 4.6 | 6.2 | 5.9 | 0 | 7.6 | 3.6 | 8.6 |
| C[C@H](Nc1ncnc2nc[nH]c12)c1cc2cccc(Cl)c2c(=O)n1-c1ccccc1 [Duvelisib] | 0.7 | 0 | 0 | 0 | 0 | 0 | 2 | 0 | 0.2 | 1.4 | 0 | 0.1 |
| Cc1ccc(NS(=O)(=O)c2cccc(C#N)c2)c2[nH]cc(C#N)c12 [E7820] | 4.4 | 3.3 | 2.7 | 0 | 5 | 3.3 | 0.8 | 10.7 | 7.3 | 1.2 | 2.8 | 4.8 |
| Cc1cc(Nc2cc(N3CCN(C)CC3)nc(/C=C/c3ccccc3)n2)n[nH]1 [ENMD-2076] | 5.8 | 8 | 8.4 | 6.3 | 10.3 | 9.6 | 8.5 | 5.1 | 7.7 | 8.8 | 4.9 | 10.3 |
| Cc1cc(C)c(CNC(=O)c2cc(-c3ccc(CN4CCOCC4)cc3)cc3c2cnn3C2CCCC2)c(=O)[nH]1 [EPZ-5687] | 0 | 0 | 0 | 1.1 | 0 | 1.8 | 0 | 0 | 0 | 0 | 0 | 0 |
| NC(=O)/C(=C/n1cnc(-c2cc(C(F)(F)F)cc(C(F)(F)F)c2)n1)c1cncnc1 [Eltanexor] | 13.7 | 21.5 | 13.2 | 10.9 | 15.7 | 14.8 | 10.9 | 19 | 34.6 | 19.3 | 7.5 | 18.9 |
| CC(C)(O)CNc1nc(Nc2ccnc(C(F)(F)F)c2)nc(-c2cccc(C(F)(F)F)n2)n1 [Enasidenib] | 0 | 0.9 | 0 | 1.1 | 0 | 0 | 0 | 0 | 0 | 0 | 0 | 0 |
| COC(=O)N[C@@H](C)CNc1nccc(-c2cn(C(C)C)nc2-c2cc(Cl)cc(NS(C)(=O)=O)c2F)n1 [Encorafenib] | 0 | 0 | 5.6 | 0 | 0.5 | 0 | 0 | 0.1 | 0 | 0.1 | 0 | 0.3 |
